Source: US7462600B2, “Macrolides” (Pfizer Inc, priority 2004, dated 2008)
≈ marks a conversion by molar mass, not a printed value. Where two headings read alike, the source gives them in different places.

Experiments:
Assay type in all cases: cell-based
[1] = system: Streptococcus pneumoniae 1095; details: microtiter broth dilution
In short: (§1)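 Antibacterial activity is expressed as the MIC from broth microdilution. Reading follows the NCCLS M100-S14 performance standards, and stocks are made in DMSO at 40 mg/ml.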

[2] = system: Streptococcus pneumoniae 1175; details: microtiter broth dilution
In short: as §1

[3] = system: Streptococcus pneumoniae 1016; test: MIC, microtiter broth dilution (NCCLS M100-S14), S. pneumoniae 1016 (susceptible)
In short: as §1

[4] = system: Haemophilus influenzae 1218; test: MIC, microtiter broth dilution (NCCLS M100-S14), H. influenzae 1218 (susceptible)
In short: as §1

[5] = system: Streptococcus pyogenes 1079; test: MIC, microtiter broth dilution (NCCLS M100-S14), S. pyogenes 1079 (ermB)
In short: as §1

[6] = S. pneumoniae 1016 (susceptible)
[7] = H. influenzae 1218 (susceptible)

Row | SMILES | MIC S. pneumo. 1095 ([1]; S. pneumoniae 1095 (ermB)) [µg/mL] | MIC S. pneumo. 1175 ([2]; S. pneumoniae 1175 (mefA)) [µg/mL] | MIC S. pneumo. 1016 [3, 6] [µg/mL] | MIC H. influenzae 1218 [4, 7] [µg/mL] | MIC S. pyogenes 1079 ([5]; S. pyogenes 1079 (ermB)) [µg/mL] | MIC S. pneumo. 1095 ([1]; Streptococcus pneumoniae 1095) [µg/mL] | MIC S. pneumo. 1175 ([2]; Streptococcus pneumoniae 1175) [µg/mL] | MIC S. pneumo. 1016 ([3]; Streptococcus pneumoniae 1016) [µg/mL] | MIC H. influenzae 1218 ([4]; Haemophilus influenzae 1218) [µg/mL] | MIC S. pyogenes 1079 ([5]; Streptococcus pyogenes 1079) [µg/mL]
1 | CC[C@H]1OC(=O)[C@H](C)C(=O)[C@H](C)[C@@H](O[C@@H]2O[C@H](C)C[C@H](N(C)C)[C@H]2O)[C@](C)(OC)C[C@@H](C)C(=O)[C@H](C)[C@H]2N(CC3(O)CN(Cc4ccn(-c5cccnc5)n4)C3)C(=O)O[C@]12C [7.13] | 1 (≈ 1.17 µM) | 1 (≈ 1.17 µM) | <0.06 | 2 (≈ 2.34 µM) | >64.00 | – | – | – | – | –
2 | CCC1OC(=O)C(C)C(=O)C(C)C(OC2OC(C)CC(N(C)C)C2O)C(C)(OC)CC(C)C(=O)C(C)C2N(C3CN(S(=O)(=O)c4ccccc4C#N)C3)C(=O)OC12C (centres unmarked) [Example 3.18, 3-descladinosyl-11,12-dideoxy-6-O-methyl-3-oxo-12,11-(oxycarbonyl-(1-(2-cyanobenzenesulfonyl)-azetidin-3-yl)-imino)-erythromycin A] | – | – | – | – | – | 1 (≈ 1.2 µM) | <0.06 | <0.06 | 0.12 (≈ 0.144 µM) | 2 (≈ 2.4 µM)
3 | CCC1OC(=O)C(C)C(=O)C(C)C(OC2OC(C)CC(N(C)C)C2O)C(C)(OC)CC(C)C(=O)C(C)C2N(C3CN(S(=O)(=O)c4cncc(-n5cccn5)c4)C3)C(=O)OC12C (centres unmarked) [Example 3.80, 3-descladinosyl-11,12-dideoxy-6-O-methyl-3-oxo-12,11-(oxycarbonyl-(1-(5-(1H-pyrazol-1-yl)pyridine-3-sulfonyl)-azetidin-3-yl)-imino)erythromycin A] | – | – | – | – | – | <0.06 | <0.06 | <0.06 | >64.00 | 4 (≈ 4.57 µM)
4 | CCC1OC(=O)C(C)C(=O)C(C)C(OC2OC(C)CC(N(C)C)C2O)C(C)(OC)CC(C)C(=O)C(C)C2N(CC3CCN(Cc4cccc(OC)n4)CC3)C(=O)OC12C (centres unmarked) [15.05] | >64.00 | 0.5 (≈ 0.602 µM) | <0.06 | 8 (≈ 9.63 µM) | >64.00 | – | – | – | – | –
5 | CCC1OC(=O)C(C)C(=O)C(C)C(OC2OC(C)CC(N(C)C)C2O)C(C)(OC)CC(C)C(=O)C(C)C2N(CC3CCN(Cc4nc5ccccc5n4C)C3)C(=O)OC12C (centres unmarked) [11.06] | 2 (≈ 2.38 µM) | 2 (≈ 2.38 µM) | <0.06 | 4 (≈ 4.76 µM) | >64.00 | – | – | – | – | –
6 | CCC1OC(=O)C(C)C(=O)C(C)C(OC2OC(C)CC(N(C)C)C2O)C(C)(OC)CC(C)C(=O)C(C)C2N(CC3CCCN3C(=O)c3ccc4cccnc4n3)C(=O)OC12C.O=CO (centres unmarked) [10.16] | <0.06 | 0.25 | <0.06 | 0.25 | >64.00 | – | – | – | – | –
7 | CC[C@H]1OC(=O)[C@H](C)C(=O)[C@H](C)[C@@H](O[C@@H]2O[C@H](C)C[C@H](N(C)C)[C@H]2O)[C@](C)(OC)C[C@@H](C)C(=O)[C@H](C)[C@H]2N(CC3(O)CN(C(=O)c4cnc5ncccc5c4)C3)C(=O)O[C@]12C [7.25] | <0.06 | 2 (≈ 2.34 µM) | <0.06 | 1 (≈ 1.17 µM) | >64.00 | – | – | – | – | –
8 | CCC1OC(=O)C(C)C(=O)C(C)C(OC2OC(C)CC(N(C)C)C2O)C(C)(OC)CC(C)C(=O)C(C)C2N(C3CN(Cc4ccnc5[nH]c(C6CC6)nc45)C3)C(=O)OC12C (centres unmarked) [Example 1.89, 3-descladinosyl-11,12-dideoxy-6-O-methyl-3-oxo-12,11-(oxycarbonyl-(1-(2-cyclopropyl-3H-imidazo[4,5-b]pyridine-7-methyl)-azetidin-3-yl)-imino)-erythromycin A] | – | – | – | – | – | 0.5 (≈ 0.596 µM) | <0.063 | <0.063 | 4 (≈ 4.77 µM) | 1 (≈ 1.19 µM)
9 | CCC1OC(=O)C(C)C(=O)C(C)C(OC2OC(C)CC(N(C)C)C2O)C(C)(OC)CC(C)C(=O)C(C)C2N(C3CN(S(=O)(=O)c4ccc(S(C)(=O)=O)cc4)C3)C(=O)OC12C (centres unmarked) [Example 3.23, 4-(methylsulfonyl) benzenesulfonyl] | – | – | – | – | – | 0.25 (≈ 0.282 µM) | <0.06 | <0.06 | 1 (≈ 1.13 µM) | >64.00
10 | CCC1OC(=O)C(C)C(=O)C(C)C(OC2OC(C)CC(N(C)C)C2O)C(C)(OC)CC(C)C(=O)C(C)C2N(CC3CCN(C(=O)c4cncc5ccccc45)C3)C(=O)OC12C (centres unmarked) [13.17] | >64.00 | 0.25 (≈ 0.294 µM) | <0.06 | 4 (≈ 4.7 µM) | >64.00 | – | – | – | – | –
11 | CCC1OC(=O)C(C)C(=O)C(C)C(OC2OC(C)CC(N(C)C)C2O)C(C)(OC)CC(C)C(=O)C(C)C2N(C3CN(Cc4cnn(-c5cccc(F)c5)c4)C3)C(=O)OC12C (centres unmarked) [Example 1.41, (1-[3-fluorophenyl]-pyrazol-4-yl)methyl] | – | – | – | – | – | <0.06 | <0.06 | <0.06 | 0.12 (≈ 0.143 µM) | >64.00
12 | CCC1OC(=O)C(C)C(=O)C(C)C(OC2OC(C)CC(N(C)C)C2O)C(C)(OC)CC(C)C(=O)C(C)C2N(C3CN(Cc4ccc(C#N)cc4)C3)C(=O)OC12C (centres unmarked) [Example 1.14, 4-cyanobenzyl] | – | – | – | – | – | 1 (≈ 1.28 µM) | 0.5 (≈ 0.639 µM) | <0.06 | 0.25 (≈ 0.319 µM) | >64.00
13 | CCC1OC(=O)C(C)C(=O)C(C)C(OC2OC(C)CC(N(C)C)C2O)C(C)(OC)CC(C)C(=O)C(C)C2N(C3CN(S(=O)(=O)c4ccc(-c5ccc(Cl)nn5)cc4)C3)C(=O)OC12C (centres unmarked) [Example 3.78] | – | – | – | – | – | <0.06 | <0.06 | <0.06 | 4 (≈ 4.35 µM) | 64 (≈ 69.5 µM)
14 | CCC1OC(=O)C(C)C(=O)C(C)C(OC2OC(C)CC(N(C)C)C2O)C(C)(OC)CC(C)C(=O)C(C)C2N(C3CN(S(=O)(=O)c4ccc5nn(C)cc5c4)C3)C(=O)OC12C (centres unmarked) [Example 3.96, 3-descladinosyl-11,12-dideoxy-6-O-methyl-3-oxo-12,11-(oxycarbonyl-(1-(2-methyl-2H-indazole-5-sulfonyl)-azetidin-3-yl)-imino)erythromycin A] | – | – | – | – | – | 0.12 (≈ 0.139 µM) | 2 (≈ 2.32 µM) | <0.06 | 1 (≈ 1.16 µM) | 1 (≈ 1.16 µM)
15 | CCC1OC(=O)C(C)C(=O)C(C)C(OC2OC(C)CC(N(C)C)C2O)C(C)(OC)CC(C)C(=O)C(C)C2N(CC3CCCN3C(=O)c3ccc4ccccc4n3)C(=O)OC12C (centres unmarked) [10.08] | <0.06 | 2 (≈ 2.35 µM) | <0.06 | 2 (≈ 2.35 µM) | >64.00 | – | – | – | – | –
16 | CC[C@H]1OC(=O)[C@H](C)C(=O)[C@H](C)[C@@H](O[C@@H]2O[C@H](C)C[C@H](N(C)C)[C@H]2O)[C@](C)(OC)C[C@@H](C)C(=O)[C@H](C)[C@H]2N(CC3(O)CN(C(=O)c4cccc5ncccc45)C3)C(=O)O[C@]12C [7.19] | 0.12 (≈ 0.141 µM) | 0.25 (≈ 0.293 µM) | <0.06 | 1 (≈ 1.17 µM) | >64.00 | – | – | – | – | –
